ChEMBL document CHEMBL1201862, “PubChem BioAssay data set” (2004)
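A five-concentration, 48-hour dose response in 96-well plates underlies each endpoint, interpolated linearly between surrounding concentrations. Here, GI50 denotes the concentration required for 50% inhibition of growth.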 Active and inactive are the calls of the source. Cut-off read from the data, not from the text of the source: active = GI50 up to about 1.1 µM and inactive = higher.

Assays:
Experiment in all cases: NCI anticancer screen, dose series, 48 h
CAKI-1 = tested on: CAKI-1
HCT-116 = tested on: HCT-116
HCT-15 = tested on: HCT-15
LXFL 529 = tested on: LXFL 529
MOLT-4 = tested on: MOLT-4
NCI-H460 = tested on: NCI-H460
OVCAR-5 = tested on: OVCAR-5
OVCAR-8 = tested on: OVCAR-8
SF-268 = tested on: SF-268
SF-539 = tested on: SF-539
SK-MEL-5 = tested on: SK-MEL-5
SN12C = tested on: SN12C
SR = tested on: SR
UACC-62 = tested on: UACC-62
UO-31 = tested on: UO-31
A498 = tested on: A498
DU-145 = tested on: DU-145
MDA-N = tested on: MDA-N
NCI/ADR-RES = tested on: NCI/ADR-RES
T47D = tested on: T47D

| Compound | GI50 (CAKI-1) | GI50 (HCT-116) | GI50 (HCT-15) [µM] | GI50 (LXFL 529) | GI50 (MOLT-4) | GI50 (NCI-H460) | GI50 (OVCAR-5) | GI50 (OVCAR-8) | GI50 (SF-268) | GI50 (SF-539) | GI50 (SK-MEL-5) | GI50 (SN12C) | GI50 (SR) | GI50 (UACC-62) | GI50 (UO-31) | GI50 (A498) | GI50 (DU-145) | GI50 (MDA-N) | GI50 (NCI/ADR-RES) | GI50 (T47D) |
| --- | --- | --- | --- | --- | --- | --- | --- | --- | --- | --- | --- | --- | --- | --- | --- | --- | --- | --- | --- | --- |
| OCCCCOC(c1ccccc1)(c1ccccc1)c1ccccc1 | > 100 µM (inactive) | > 100 µM (inactive) | > 100 | > 100 µM (inactive) | > 100 µM (inactive) | > 100 µM (inactive) | > 100 µM (inactive) | > 100 µM (inactive) | > 100 µM (inactive) | > 100 µM (inactive) | > 100 µM (inactive) | > 100 µM (inactive) | > 100 µM (inactive) | > 100 µM (inactive) | > 100 µM (inactive) | – | – | – | – | – |
| CC(=O)Nc1ccccc1-c1cnc2ccccc2n1 | > 100 µM (inactive) | > 100 µM (inactive) | > 100 | > 100 µM (inactive) | > 100 µM (inactive) | > 100 µM (inactive) | > 100 µM (inactive) | > 100 µM (inactive) | > 100 µM (inactive) | > 100 µM (inactive) | > 100 µM (inactive) | > 100 µM (inactive) | > 100 µM (inactive) | > 100 µM (inactive) | – | > 100 µM (inactive) | – | – | – | – |
| Cc1c(/C=N/NC(=O)c2ccccc2)c(=O)n(-c2ccccc2)n1C | – | > 100 µM (inactive) | > 100 | > 100 µM (inactive) | > 100 µM (inactive) | > 100 µM (inactive) | – | > 100 µM (inactive) | > 100 µM (inactive) | > 100 µM (inactive) | – | > 100 µM (inactive) | > 100 µM (inactive) | > 100 µM (inactive) | > 100 µM (inactive) | > 100 µM (inactive) | – | – | – | – |
| N#CC1=C(N)N2C(=O)/C(=C/c3ccccc3)SC2C(c2nc3ccccc3[nH]2)=C1c1ccccc1 (stereo not drawn) | 2.07 µM (inactive) | 3.45 µM (inactive) | 2.95 | 2.49 µM (inactive) | 2.4 µM (inactive) | 3.09 µM (inactive) | 2.54 µM (inactive) | 2.46 µM (inactive) | 2.42 µM (inactive) | 1.91 µM (inactive) | 1.83 µM (inactive) | 2.91 µM (inactive) | 1.91 µM (inactive) | 2.17 µM (inactive) | 1.93 µM (inactive) | 2.12 µM (inactive) | – | – | – | – |
| CC1=CC(=O)NP(=O)(C23CC4CC(CC(C4)C2)C3)N1 (stereo not drawn) | > 100 µM (inactive) | > 100 µM (inactive) | > 100 | > 100 µM (inactive) | > 100 µM (inactive) | > 100 µM (inactive) | > 100 µM (inactive) | > 100 µM (inactive) | > 100 µM (inactive) | > 100 µM (inactive) | > 100 µM (inactive) | > 100 µM (inactive) | > 100 µM (inactive) | > 100 µM (inactive) | > 100 µM (inactive) | > 100 µM (inactive) | – | – | – | – |
| c1ccc2[nH]c(-c3nc4ccccc4o3)nc2c1 | – | > 100 µM (inactive) | > 100 | > 100 µM (inactive) | > 100 µM (inactive) | > 100 µM (inactive) | > 100 µM (inactive) | > 100 µM (inactive) | > 100 µM (inactive) | > 100 µM (inactive) | 62.8 µM (inactive) | > 100 µM (inactive) | > 100 µM (inactive) | – | > 100 µM (inactive) | > 100 µM (inactive) | – | – | – | – |
| O=C1OC(O)C(Oc2c(Cl)cccc2Cl)=C1Cl (stereo not drawn) | 18.9 µM (inactive) | 14.8 µM (inactive) | 15.6 | 16.6 µM (inactive) | 21.8 µM (inactive) | 15.5 µM (inactive) | 19.4 µM (inactive) | 17.5 µM (inactive) | 16 µM (inactive) | 17 µM (inactive) | 14.2 µM (inactive) | 17 µM (inactive) | 21.7 µM (inactive) | 11.9 µM (inactive) | 14.1 µM (inactive) | 22.2 µM (inactive) | – | – | – | – |
| Cc1cc(NS(=O)(=O)c2ccc(NC(=O)c3ccc(Cl)c4c(Nc5ccc(S(N)(=O)=O)cc5)c5ccccc5nc34)cc2)no1 | 21.1 µM (inactive) | 15.2 µM (inactive) | > 100 | 15.9 µM (inactive) | 22.5 µM (inactive) | 25.8 µM (inactive) | 24.5 µM (inactive) | 17.9 µM (inactive) | 12.9 µM (inactive) | 17.3 µM (inactive) | 18.2 µM (inactive) | 23.1 µM (inactive) | 20.4 µM (inactive) | 11.2 µM (inactive) | 23.2 µM (inactive) | 23.3 µM (inactive) | – | – | – | – |
| CCOC(=O)CNC1C(NC(C)=O)C(OC)OC2COC(c3ccccc3)OC21 (stereo not drawn) | > 100 µM (inactive) | > 100 µM (inactive) | > 100 | > 100 µM (inactive) | > 10 µM (inactive) | > 100 µM (inactive) | > 100 µM (inactive) | > 100 µM (inactive) | > 100 µM (inactive) | > 100 µM (inactive) | > 100 µM (inactive) | > 100 µM (inactive) | – | > 100 µM (inactive) | > 100 µM (inactive) | > 100 µM (inactive) | – | – | – | – |
| Cc1ccc(C(=O)NCc2ccccc2)cc1/N=N/N(C)C | > 100 µM (inactive) | > 72.1 µM (inactive) | > 83 | 47.5 µM (inactive) | 56.8 µM (inactive) | > 100 µM (inactive) | > 100 µM (inactive) | > 100 µM (inactive) | > 62.5 µM (inactive) | > 100 µM (inactive) | > 74.3 µM (inactive) | > 100 µM (inactive) | 60 µM (inactive) | > 100 µM (inactive) | > 31.5 µM (inactive) | – | > 100 µM (inactive) | > 100 µM (inactive) | 86.3 µM (inactive) | 39.7 µM (inactive) |
| CC1(C)CC(=O)C(CC2C(=O)c3ccccc3C2=O)C(=O)C1 | > 100 µM (inactive) | > 100 µM (inactive) | > 100 | > 100 µM (inactive) | > 100 µM (inactive) | > 100 µM (inactive) | > 100 µM (inactive) | > 100 µM (inactive) | > 100 µM (inactive) | > 100 µM (inactive) | > 100 µM (inactive) | > 100 µM (inactive) | 53.7 µM (inactive) | > 100 µM (inactive) | > 100 µM (inactive) | > 100 µM (inactive) | – | – | – | – |
| COc1cc2c(c(OC)c1OC)-c1ccc(SC)c(=O)cc1C(CC(=O)Oc1cccc(C#N)c1)C2 (stereo not drawn) | 3.42 µM (inactive) | 0.387 µM (active) | 0.33 | 0.516 µM (active) | 0.536 µM (active) | 0.365 µM (active) | – | 0.423 µM (active) | 0.512 µM (active) | 0.221 µM (active) | 0.313 µM (active) | 0.48 µM (active) | 0.134 µM (active) | 0.202 µM (active) | 1.67 µM (inactive) | 0.015 µM (active) | – | – | – | – |
| CC(=O)NC(CCCCN)C(=O)NCc1ccccc1 (stereo not drawn) | > 100 µM (inactive) | > 100 µM (inactive) | > 100 | > 100 µM (inactive) | > 100 µM (inactive) | > 100 µM (inactive) | > 100 µM (inactive) | > 100 µM (inactive) | 42.1 µM (inactive) | > 100 µM (inactive) | > 100 µM (inactive) | > 100 µM (inactive) | – | > 100 µM (inactive) | > 100 µM (inactive) | > 100 µM (inactive) | – | – | – | – |
| Cc1nc(-c2nc(C)c(C(=O)NN(C)C)s2)sc1C(=O)NN(C)C | > 100 µM (inactive) | – | 67.9 | > 100 µM (inactive) | 44.1 µM (inactive) | > 100 µM (inactive) | > 100 µM (inactive) | > 100 µM (inactive) | > 100 µM (inactive) | > 100 µM (inactive) | > 100 µM (inactive) | > 100 µM (inactive) | 19.7 µM (inactive) | > 100 µM (inactive) | > 100 µM (inactive) | > 100 µM (inactive) | – | – | – | – |
| COc1cc(/C=C2\[C@H]3c4c(c(OC)c(C)c(OC)c4OC)C[C@@H](C(=O)N2Cc2ccccc2)N3C(=O)OCC(C)C)c(OC)c(C)c1OC | 23.6 µM (inactive) | 12.1 µM (inactive) | > 100 | > 100 µM (inactive) | 12.3 µM (inactive) | – | > 27.5 µM (inactive) | > 100 µM (inactive) | > 100 µM (inactive) | > 100 µM (inactive) | 26.2 µM (inactive) | > 100 µM (inactive) | 13.3 µM (inactive) | > 100 µM (inactive) | > 100 µM (inactive) | > 65.9 µM (inactive) | – | – | – | – |
| C=CCNC(=S)N1CC(C)C(=O)Nc2cc(Cl)ccc21 (stereo not drawn) | > 100 µM (inactive) | > 100 µM (inactive) | > 100 | > 100 µM (inactive) | > 100 µM (inactive) | > 100 µM (inactive) | > 100 µM (inactive) | > 100 µM (inactive) | > 100 µM (inactive) | 76 µM (inactive) | > 100 µM (inactive) | > 100 µM (inactive) | > 100 µM (inactive) | > 100 µM (inactive) | > 100 µM (inactive) | > 100 µM (inactive) | – | – | – | – |
| C=CCNC1=C(C(=O)OCC)C(=O)CO1 | > 100 µM (inactive) | > 100 µM (inactive) | > 100 | > 100 µM (inactive) | > 100 µM (inactive) | > 100 µM (inactive) | > 100 µM (inactive) | > 100 µM (inactive) | > 100 µM (inactive) | > 100 µM (inactive) | > 100 µM (inactive) | > 100 µM (inactive) | > 100 µM (inactive) | > 100 µM (inactive) | > 100 µM (inactive) | > 100 µM (inactive) | – | – | – | – |
| C=C1C(=O)OC2/C=C(\CO)C3OC3C3OC3(C)CC(OC(=O)/C(=C/C)COC(C)=O)C12 (stereo not drawn) | 1.95 µM (inactive) | 1.55 µM (inactive) | 2.12 | 0.805 µM (active) | 7.89 µM (inactive) | 12.2 µM (inactive) | 15.3 µM (inactive) | 2.79 µM (inactive) | 11.2 µM (inactive) | 2.91 µM (inactive) | 8.13 µM (inactive) | 3.2 µM (inactive) | 2.09 µM (inactive) | 2.86 µM (inactive) | 10.6 µM (inactive) | 13.8 µM (inactive) | 17.1 µM (inactive) | 3.58 µM (inactive) | 12.1 µM (inactive) | 3.01 µM (inactive) |
